System: Rattus norvegicus
Assay: Reduction in incidence of 600 mg/kg, sc ciprofloxacin-induced cartilage lesions in vitamin E-enriched diet fed immature Wistar rat after 10 days
Format: functional, organism-based
Parameters: dose 600 mg/kg; scale not given: the % may be the effect or the level left
Conditions: at 600 mg/kg

VITAMIN E
Activity: 41%

— ChEMBL document CHEMBL1142095, “Diminished ciprofloxacin-induced chondrotoxicity by supplementation with magnesium and vitamin E in immature rats” (Antimicrob Agents Chemother, 2007)
